Source: US20260240765A1, “RIFAMYCIN-QUINOLIZINONE COUPLED MOLECULE OINTMENT AND METHOD FOR PREPARING SAME” (Tennor Therapeutics (Zhongshan) Limited, priority 2022, published 2026)

Key:
[1] = cited from earlier work
[2] = Saturation solubility of API in ointment bases; format: physicochemical
Procedure: (§1) Experimental steps: About 340 mg of API was added gradually and slowly to about 5 g of PEG400 (in a water bath at 40° C.), and the mixture was dissolved by magnetic stirring. The orange-red mixture was gradually viscous and could no longer be stirred. About 7 g of PEG400 was added gradually and stirred for another 20 min. The resulting mixture was divided into two portions, one portion was maintained in a water bath at 40° C., and the other portion was cooled to room temperature. Both portions were filtered through a PES water membrane (13 mm, 0.45 μm), and the filtrates were collected for content analysis.
as §1, with “About 400” for “Experimental steps: About 340”, “About 400 mg of” for “steps: About 340 mg of”, “g of propylene glycol (in a” for “g of PEG400 (in a”, “mixture was stirred for dissolution. The orange-red” for “mixture was dissolved by magnetic stirring. The orange-red”

## CO[C@H]1/C=C/O[C@@]2(C)Oc3c(C)c(O)c4c(O)c(c(/C=N/N5CCC(N(C)C6([C@@H]7CCN(c8c(F)cn9c(=O)c(C(=O)O)cc(C%10CC%10)c9c8C)C7)CC6)CC5)c(O)c4c3C2=O)NC(=O)/C(C)=C\C=C\[C@H](C)[C@H](O)[C@@H](C)[C@@H](O)[C@@H](C)[C@H](OC(C)=O)[C@@H]1C [API, rifamycin-quinolizinone coupling molecule]
[1]
  Solubility in dichloromethane, polyethylene glycol 400, and dimethyl sulfoxide: soluble
  Solubility in ethanol, methanol, and diethyl ether: almost insoluble
  Water solubility: low
[1]; phenol form converts to quinone form
  Oxidation on exposure to air: easily to be oxidized
[1]; water solubility is pH-dependent, relatively low at low pH
  pH of maximum water solubility: 10
[2]; in PEG400, 40° C.
  Saturation solubility: 23.79 mg/g
[2]; in PEG400, room temperature
  Saturation solubility: 5.80 mg/g
[2]; in propylene glycol, 40° C.
  Saturation solubility: 0.65 mg/g
[2]; in propylene glycol, room temperature
  Saturation solubility: 0.15 mg/g
